Assay results reported in PubChem BioAssay AID248 (DTP/NCI, 2004).
Where “and” joins values, the source holds several entries; their conditions need not be identical. Equal values may be shown once. Toxic doses and inconclusive results are not listed. Rule as the data show it: active = T/C of 150% or more; inactive = T/C below 125%.

Test system: L1210 leukemia ip in BDF1 mice, survival T/C
Assay: NCI In Vivo Anticancer Drug Screen. Data for tumor model L1210 Leukemia (intraperitoneal) in B6D2F1 (BDF1) mice
Conditions: endpoint: mean survival time, higher = longer survival
Procedure, shortened: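 Tumor cells were implanted, animals were treated, and survival was followed. The result divides the treated measurement by the vehicle-control measurement.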

[1] = dose: 100.0 mg/kg/injection, schedule: Q01DX001 (ip), vehicle: carboxymethylcellulose (CMC)
[2] = dose: 200.0 mg/kg/injection, schedule: Q01DX001 (ip), vehicle: carboxymethylcellulose (CMC)
[3] = dose: 400.0 mg/kg/injection, schedule: Q01DX001 (ip), vehicle: carboxymethylcellulose (CMC)
[4] = dose: 100.0 mg/kg/injection, schedule: Q04DX003 (ip), vehicle: Klucel (hydroxypropylcellulose) (HPC)
[5] = dose: 200.0 mg/kg/injection, schedule: Q04DX003 (ip), vehicle: Klucel (hydroxypropylcellulose) (HPC)
[6] = dose: 400.0 mg/kg/injection, schedule: Q04DX003 (ip), vehicle: Klucel (hydroxypropylcellulose) (HPC)
[7] = dose: 100.0 mg/kg/injection, schedule: Q04DX003 (ip), vehicle: saline with Tween-80
[8] = dose: 200.0 mg/kg/injection, schedule: Q04DX003 (ip), vehicle: saline with Tween-80
[9] = dose: 400.0 mg/kg/injection, schedule: Q04DX003 (ip), vehicle: saline with Tween-80
[10] = dose: 100.0 mg/kg/injection, schedule: Q01DX001 (ip), vehicle: saline
[11] = dose: 100.0 mg/kg/injection, schedule: Q01DX009 (ip), vehicle: Klucel (hydroxypropylcellulose) (HPC)
[12] = dose: 200.0 mg/kg/injection, schedule: Q01DX009 (ip), vehicle: Klucel (hydroxypropylcellulose) (HPC)
[13] = dose: 400.0 mg/kg/injection, schedule: Q01DX009 (ip), vehicle: Klucel (hydroxypropylcellulose) (HPC)
[14] = dose: 100.0 mg/kg/injection, schedule: Q01DX001 (ip), vehicle: Klucel (hydroxypropylcellulose) (HPC)
[15] = dose: 200.0 mg/kg/injection, schedule: Q01DX001 (ip), vehicle: Klucel (hydroxypropylcellulose) (HPC)
[16] = dose: 400.0 mg/kg/injection, schedule: Q01DX001 (ip), vehicle: Klucel (hydroxypropylcellulose) (HPC)
[17] = dose: 100.0 mg/kg/injection, schedule: Q01DX009 (ip), vehicle: saline
[18] = dose: 100.0 mg/kg/injection, schedule: Q04DX003 (ip), vehicle: saline
[19] = dose: 200.0 mg/kg/injection, schedule: Q01DX001 (ip), vehicle: saline
[20] = dose: 400.0 mg/kg/injection, schedule: Q01DX001 (ip), vehicle: saline
[21] = dose: 100.0 mg/kg/injection, schedule: Q04DX002 (ip), vehicle: saline
[22] = dose: 200.0 mg/kg/injection, schedule: Q04DX002 (ip), vehicle: saline

Measured: T/C

CNC(=O)Nc1cccc2ccccc12
inactive: [1] 95 % of control | dose: 100.0 mg/kg/injection, schedule: Q01DX009 (ip), vehicle: carboxymethylcellulose (CMC) 93 % of control and 89 % of control | dose: 100.0 mg/kg/injection, schedule: Q04DX002 (ip), vehicle: carboxymethylcellulose (CMC) 106 % of control | dose: 100.0 mg/kg/injection, schedule: Q04DX003 (ip), vehicle: carboxymethylcellulose (CMC) 97 % of control | [2] 101 % of control | dose: 200.0 mg/kg/injection, schedule: Q01DX009 (ip), vehicle: carboxymethylcellulose (CMC) 98 % of control and 101 % of control | dose: 200.0 mg/kg/injection, schedule: Q04DX002 (ip), vehicle: carboxymethylcellulose (CMC) 100 % of control | dose: 200.0 mg/kg/injection, schedule: Q04DX003 (ip), vehicle: carboxymethylcellulose (CMC) 96 % of control | [3] 97 % of control | dose: 400.0 mg/kg/injection, schedule: Q01DX009 (ip), vehicle: carboxymethylcellulose (CMC) 93 % of control and 86 % of control | dose: 400.0 mg/kg/injection, schedule: Q04DX002 (ip), vehicle: carboxymethylcellulose (CMC) 99 % of control | dose: 400.0 mg/kg/injection, schedule: Q04DX003 (ip), vehicle: carboxymethylcellulose (CMC) 97 % of control

O=C(NC1CCCCC1)c1ccccc1
inactive: [4] 100 % of control | [5] 93 % of control | [6] 96 % of control

O=C1OC(=O)C2C3C=CC(C12)C1C2C(=O)OC(=O)C2C31 (configuration not stated)
inactive: [7] 94 % of control | [8] 94 % of control | [9] 91 % of control

CCOC(=O)CCCC(=O)c1ccc(OC)c(OC)c1
inactive: [1] 100 % of control | [2] 102 % of control | [3] 100 % of control

CC(=O)NN
inactive: [10] 104 % of control

Cc1ccc(CNc2cccc([N+](=O)[O-])c2)cc1
inactive: [11] 98 % of control | [4] 98 % of control | [12] 93 % of control | [5] 96 % of control | [13] 102 % of control | [6] 101 % of control

Cc1n(C)c(=O)c2ccccc2[n+]1C
inactive: [14] 106 % of control | [15] 87 % of control | [16] 97 % of control

O=C1NC(=O)c2cccc3cccc1c23
inactive: dose: 100.0 mg/kg/injection, schedule: Q01DX001 (ip), vehicle: saline with Tween-80 98 % of control | dose: 200.0 mg/kg/injection, schedule: Q01DX001 (ip), vehicle: saline with Tween-80 102 % of control | dose: 400.0 mg/kg/injection, schedule: Q01DX001 (ip), vehicle: saline with Tween-80 102 % of control

CN(C)CCNS(C)(=O)=O
inactive: [17] 105 % of control | [18] 98 % of control | dose: 200.0 mg/kg/injection, schedule: Q01DX009 (ip), vehicle: saline 105 % of control | dose: 200.0 mg/kg/injection, schedule: Q04DX003 (ip), vehicle: saline 100 % of control | dose: 400.0 mg/kg/injection, schedule: Q01DX009 (ip), vehicle: saline 109 % of control | dose: 400.0 mg/kg/injection, schedule: Q04DX003 (ip), vehicle: saline 100 % of control

O=C(N1CCCCC1)N1CCCCC1
inactive: dose: 100.0 mg/kg/injection, schedule: Q04DX002 (ip), vehicle: other 105 % of control | dose: 200.0 mg/kg/injection, schedule: Q04DX002 (ip), vehicle: other 91 % of control | dose: 400.0 mg/kg/injection, schedule: Q04DX002 (ip), vehicle: other 88 % of control

O=C(Nc1nccs1)C(F)(F)F
inactive: [10] 109 % of control | [19] 109 % of control | [20] 102 % of control

CN1CCC2=C(C1)C(c1ccccc1)c1ccccc12 (configuration not stated)
inactive: dose: 25.0 mg/kg/injection, schedule: Q01DX009 (ip), vehicle: saline 90 % of control | dose: 50.0 mg/kg/injection, schedule: Q01DX009 (ip), vehicle: saline 95 % of control | dose: 50.0 mg/kg/injection, schedule: Q04DX003 (ip), vehicle: saline 106 % of control | [17] 102 % of control | [18] 106 % of control

CCCCCCCCC(SC#N)C(CCCCCCCC(=O)O)SC#N (configuration not stated)
inactive: dose: 100.0 mg/kg/injection, schedule: Q04DX002 (ip), vehicle: Klucel (hydroxypropylcellulose) (HPC) 100 % of control | dose: 200.0 mg/kg/injection, schedule: Q04DX002 (ip), vehicle: Klucel (hydroxypropylcellulose) (HPC) 95 % of control | dose: 400.0 mg/kg/injection, schedule: Q04DX002 (ip), vehicle: Klucel (hydroxypropylcellulose) (HPC) 106 % of control

COc1ccc(C2(OC)Oc3ccccc3C(=O)C2(O)OC)cc1OC (configuration not stated)
inactive: dose: 50.0 mg/kg/injection, schedule: Q01DX001 (ip), vehicle: saline 105 % of control | [10] 103 % of control | [19] 100 % of control | [20] 97 % of control

CC(C)(C)C1=CC(=O)C=C(C(C)(C)C)C1=O
inactive: [14] 89 % of control | [15] 92 % of control | [5] 87 % of control | [16] 100 % of control | [6] 89 % of control

c1ccc([Se+](c2ccccc2)c2ccccc2)cc1
inactive: dose: 0.22 mg/kg/injection, schedule: Q01DX009 (ip), vehicle: Klucel (hydroxypropylcellulose) (HPC) 98 % of control | dose: 0.39 mg/kg/injection, schedule: Q01DX009 (ip), vehicle: saline 94 % of control | dose: 0.45 mg/kg/injection, schedule: Q01DX009 (ip), vehicle: Klucel (hydroxypropylcellulose) (HPC) 110 % of control | dose: 0.78 mg/kg/injection, schedule: Q01DX009 (ip), vehicle: saline 97 % of control | dose: 1.56 mg/kg/injection, schedule: Q01DX009 (ip), vehicle: saline 87 % of control

CC(C)CC(N)C(=O)CCl (configuration not stated)
inactive: dose: 25.0 mg/kg/injection, schedule: Q04DX002 (ip), vehicle: Klucel (hydroxypropylcellulose) (HPC) 108 % of control | dose: 50.0 mg/kg/injection, schedule: Q04DX002 (ip), vehicle: Klucel (hydroxypropylcellulose) (HPC) 102 % of control

COCC(=O)O
inactive: [14] 100 % of control | [21] 102 % of control | [15] 96 % of control | [22] 94 % of control | [16] 100 % of control | dose: 400.0 mg/kg/injection, schedule: Q04DX002 (ip), vehicle: saline 97 % of control

CCc1ccccc1NC(=O)Nc1ccc(S(N)(=O)=O)cc1
inactive: [11] 98 % of control | [12] 97 % of control | [13] 103 % of control

CCCCNC(C)[C@]1(O)Cc2c(O)c3c(c(O)c2[C@@H](OC2CC(N)C(O)C(C)O2)C1)C(=O)c1c(OC)cccc1C3=O (some centres not stated)
inactive: dose: 1.56 mg/kg/injection, schedule: Q01DX009 (ip), vehicle: water 104 % of control | dose: 3.13 mg/kg/injection, schedule: Q01DX009 (ip), vehicle: water 119 % of control | dose: 6.25 mg/kg/injection, schedule: Q01DX009 (ip), vehicle: water 117 % of control

O=C(N/N=C/c1ccc(Cl)cc1Cl)c1ccccc1
inactive: [4] 101 % of control | [5] 95 % of control

C=CCc1c2c(ccc(OC)c1=O)-c1c(cc(OC)c(OC)c1OC)CCC2NC(C)=O (configuration not stated)
inactive: [1] 106 % of control | [2] 109 % of control | [3] 109 % of control

CCOC(=O)c1ccc(OCCOc2ccc(C(C)(C)CC)cc2)cc1
inactive: [7] 102 % of control | [8] 112 % of control | [9] 108 % of control

O=C(O)c1cscc1-c1cccc2ccccc12
inactive: [7] 91 % of control | [8] 98 % of control

CC(C)COC(=O)CCCc1ccc(N(CCCl)CCCl)cc1
inactive: [21] 121 % of control | [22] 111 % of control

CCN(CC)C(=S)S.[Cu+2]
inactive: [10] 105 % of control | [19] 102 % of control | [20] 105 % of control
